According to PubChem BioAssay AID179 (DTP/NCI, 2004):
The source made the active and inactive calls.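 How the source made its calls: active means compounds giving half or more protection of infected cells from virus-caused growth loss, again on retest; inactive means the rest.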 Where a SMILES comes first, the peptide text is derived from it. Bridges are numbered along the chain shown (N, C = ends).

Test system: CEM cells HIV-1 protection, formazan growth assay
Assay: NCI AIDS Antiviral Assay
Conditions: for IC50: measured here: growth of uninfected CEM cells
Method in brief: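 Human CEM cells, uninfected and HIV-1-infected, received five drug concentrations, and growth was read by soluble formazan assay. Compounds giving at least 50% protection were retested; reproducible 100% protection defined confirmed active.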

SMILES | EC50 [µM] | IC50 [µM] | outcome
CN1CC=C(OP(=O)(NCc2ccccc2)N(CCCl)CCCl)CC1 (stereo not drawn) | > 200 | 135 | –
COc1ccc2nc3cccc([N+](=O)[O-])c3c(NCCO)c2c1 | > 2 | 0.0309 | –
CCN(CC)c1c(-c2ccccc2)nnc2c3ccccc3nn12 | > 200 | 24 | –
O=C(O)CN1C=C(C(=O)c2cc3ccccc3n2S(=O)(=O)c2ccccc2)CCC1 | > 200 | 89.1 | –
O=C1N(c2ccccc2)C2(O)C(=O)c3ccccc3C2(O)N1c1ccccc1 (stereo not drawn) | > 676 | 110 | –
CN1C(=O)C(O)C[C@@H]1c1ccc(F)cc1 (stereo partly drawn) | – | – | inactive
O=c1cc(O)c2c(ccc3ccccc32)[nH]1 | > 200 | > 200 | –
Cc1cnc2c(Nc3ccc(Cl)cc3)cc(N)nc2n1 | > 120 | 4.47 | –
CCOC(=O)C1N(S(=O)(=O)c2ccc(C)cc2)CCC12c1ccccc1NC2c1ccc(OC)c(OC)c1 (stereo not drawn) | – | – | inactive
c1cnc2c(c1)-n1cccc1C1(CCSC1)NN2 (stereo not drawn) | > 138 | > 138 | –
CC(=O)Oc1cc(-c2oc3cc(OC(C)=O)c(C4OC(CO)C(O)C(O)C4O)c(OC(C)=O)c3c(=O)c2O)c(OC(C)=O)cc1O (stereo not drawn) | > 200 | > 200 | –
Cc1cc(S(=O)(=O)O)c(NC(=O)c2oc3cc(O)ccc3c(=O)c2C)cc1Cl | > 589 | > 589 | –
CN(C)CCN(C)c1ccc2c(=O)n(CCN(C)C)c(=O)n3c4ccccc4c(=O)c1c23 | > 0.2 | 0.11 | –
CSc1nc(NC2OC(CO)C(O)C(O)C2O)cc(=O)[nH]1 (stereo not drawn) | – | – | inactive
COC(=O)c1ccc(-c2nc(C#N)c(N)o2)cc1 | > 200 | > 200 | –
Cc1ccc(S(=O)(=O)c2c(O)c3ccc(O)c(C)c3oc2=O)cc1 | > 200 | > 200 | –
Cn1c2ccc3cc2c(=S)c2cc(ccc21)OCCOCCOCCOCCOCCO3 | > 200 | 61.7 | –
CN(C)c1ccc(/C=C(\NC(=O)c2ccccc2)C2=NC(CC(=O)O)C(=O)O2)cc1 (stereo not drawn) | > 50.1 | > 50.1 | –
C(=C\c1csnn1)/c1cccnc1 | > 316 | 182 | –
CCCCn1cnc2ccc3[nH]c(C)nc3c2c1=O | > 759 | 55 | –
CCOC(=O)NC(OC)(C(F)(F)F)C(F)(F)F | > 200 | > 200 | –
OCC1OC2(CCCC3CC32)O[C@H]1CO (stereo partly drawn) | – | – | inactive

SMILES | EC50 [µM] | IC50 [µM] | outcome
Cc1cc2cc3ccccc3cc2c(=O)[nH]1 | > 200 | 182 | –
CC1(C)c2ccccc2C(=O)C12CCC(=O)CC2 | > 200 | > 200 | –
O=[N+]([O-])C(=C/c1cccc2ccccc12)/C(=C\c1cccc2ccccc12)[N+](=O)[O-] | > 20 | 9.12 | –
COc1ccc2c3c([nH]c(=O)c2c1C(=O)O)-c1ccccc1CC3 | > 16.2 | > 16.2 | –
S=c1[nH]c2ccccc2c(=S)n1CN1CCCCC1 | > 200 | 110 | –
O=C1C=CC2=[N+]([O-])C(c3ccccc3)(c3ccccc3)C(=Nc3ccccc3)C2=C1 | – | – | inactive
CSC1N=CNc2c1sc(=S)n2-c1ccccc1 (stereo not drawn) | > 33.9 | > 33.9 | –
O=c1nc2ccccc2c2n1CCN2 | > 95.5 | > 95.5 | –
O=C(/C=C\c1ccc(-c2ccccc2)cc1)c1cccs1 | > 200 | 11.2 | –
CCOC(=O)C1=C(C)C(C(=O)OC)/C(=C/c2cccc3cccnc23)C1=O (stereo not drawn) | > 200 | 10.7 | –
C1=CC(=P(c2ccccc2)(c2ccccc2)c2ccccc2)C=C1 | – | – | inactive
Nc1ccc(/C=C/c2ccc3ncccc3c2)cc1 | 0.0631 | > 200 | –
Cc1ccc(NC(=O)/C(Cc2cc(=O)oc3cc(O)ccc23)=N\NC(C)(C)C)cc1C | > 17 | > 17 | –
NC(=O)c1ccc(NC=O)cc1 | > 1510 | 977 | –
NS(=O)(=O)c1ccc(NC(=O)Cc2nc3ccccc3s2)cc1 | > 195 | 14.1 | –
C/C(=N\NC(N)=S)c1ccc(/C(C)=N/NC(N)=S)cc1 | – | – | inactive
CCCC/C=C(/CCCNCCCC)[Si](C)(C)C | > 479 | 240 | –
CCCCn1c(-c2ccc(Cl)cc2)cs/c1=N\Nc1nc2c(c(=O)n(C)c(=O)n2C)n1C | > 33.1 | 11 | –
O=C1CC2OCC=C3CN4CCC5(C(=O)O)C(N1)C2C3CC45 (stereo not drawn) | > 813 | > 813 | –
COc1cc(C2c3cc4c(cc3OC(NCCO)C2C)OCO4)cc(OC)c1OC (stereo not drawn) | > 20 | 0.24 | –
CC1C[C@@H]2C(=O)NC(=O)[C@@H]2c2c1c1ccccc1n2C (stereo partly drawn) | > 331 | 214 | –
COc1cc2c(cc1OC)CN1CCc3ccccc3CC1C2 (stereo not drawn) | > 200 | 14.8 | –

SMILES | EC50 [µM] | IC50 [µM] | outcome
N=c1c2ncn(C3OC(CO)CC3F)c2ncn1O (stereo not drawn) | – | – | inactive
CN(C)CCN(C)CC(O)CO (stereo not drawn) | – | – | inactive
O=C1C2Nc3ccccc3SC2C(=O)N1c1ccccc1C(F)(F)F (stereo not drawn) | > 20 | 15.1 | –
Cc1cc[c]([Sb](=[O])([OH])[c]2ccc(C)cc2)cc1 | > 5.01 | 0.851 | –
CC1(C)CCCCCCCCCC(C)(CCCO)C1=O (stereo not drawn) | > 200 | 26.9 | –
c1ccc(C(c2ccccc2)[P+](c2ccccc2)(c2ccccc2)c2ccccc2)cc1 | > 20 | 0.372 | –
Cc1ccc(-n2cc([Si](C)(C)C)nn2)s1 | > 200 | 123 | –
COc1ccccc1N1C(=O)CC(=O)N(C(=O)CCCCCCCCC(=O)N2C(=O)CC(=O)N(c3ccccc3OC)C2=S)C1=S | > 200 | 95.5 | –
CC1(C)N/C(=C\[N+](=O)[O-])C(C)(C)N1O | > 200 | > 200 | –
Cc1ccc(C)c(NC(=O)C(=O)C(c2cnc3ccc([N+](=O)[O-])cc3n2)[N+](=O)[O-])c1 (stereo not drawn) | > 123 | > 123 | –
O=[N+]([O-])CC(SCc1ccccc1)c1ccc2c(c1)OCO2 (stereo not drawn) | – | – | inactive
CC(=O)OC(Cc1cc(C=C(C(F)(F)F)C(F)(F)F)cc(C)n1)(C(F)(F)F)C(F)(F)F | > 200 | 0.955 | –
CCN(CC)CCOCCn1c2c(c3ccccc31)CCCC2 | > 200 | 30.9 | –
COc1cccc(/C=C/C(=O)C(C)(C)C)c1 | > 24 | > 24 | –
N#CCC1COc2ccccc2O1 (stereo not drawn) | > 200 | > 200 | –
CCC(C)C1NC(=O)C2CCCN2C(=O)C(Cc2ccc(O)cc2)NC(=O)C(CC(N)=O)NC(=O)C(CCC(N)=O)NC(=O)C(CO)NC(=O)C(C(C)C)NC(=O)C(N)CSSCC(C(=O)O)NC(=O)C(CCC(N)=O)NC(=O)C(C(C)C)NC1=O (stereo not drawn) (H-CVSQNYPIVQC-OH; disulfide 1-11; configuration not given here) | > 50.1 | > 50.1 | –
c1ccc2c(c1)c1ccccc1c1nc3c(nc21)CCCC3 | > 200 | > 200 | –
CCOC(=O)c1[nH]c(-c2[nH]c(-c3[nH]c(-c4[nH]c(C(=O)OCC)c(C)c4C(=O)OCC)c(C(=O)OCC)c3C)c(C)c2C(=O)OCC)c(C(=O)OCC)c1C | > 200 | > 200 | –
CC(=O)/C=C/c1cc([N+](=O)[O-])ccc1O | > 200 | 36.3 | –
COc1cc(Nc2nc3cc(C(F)(F)F)ccc3nc2C)cc(OC)c1OC | > 60.3 | 31.6 | –
COc1ccc(NC(=O)Oc2ccc3c(C)cc(=O)oc3c2)c(OC)c1 (tested in a mixture with another compound) | > 100 | 46.8 | –
CCn1c(=O)c2c3ccc(OC(C)=O)cc3[nH]c2c2ccc(OC(C)=O)cc21 | > 200 | 26.9 | –

SMILES | EC50 [µM] | IC50 [µM] | outcome
CO/C(N)=C(\C#N)N=Cc1ccco1 | > 200 | 191 | –
COc1ccc(C2=C(OC(C)=O)c3cccn3-c3ccc(Cl)cc3S2)cc1 | > 200 | 12.3 | –
CC1=NNC(=O)C1N=Nc1c(C)n(C)n(-c2ccccc2)c1=O (stereo not drawn) | > 200 | 16.6 | –
Cn1cnc2c1S(=O)(=O)NC(=S)N2 | > 1150 | > 1150 | –
CCC1(CC)CC(=NNS(=O)(=O)c2ccc(C)cc2)C1 | – | – | inactive
CCCCCCCCCCCCCCCC(O)S(=O)(=O)O (stereo not drawn) | > 100 | 15.1 | –
CCOP(=O)(OCC)[C@]12C[C@@H](C)C=C[C@H]1COC2=O | > 200 | 135 | –
CC(C)/C(Cl)=N/OC(=O)Nc1ccc(OC(F)(F)F)cc1 | > 200 | 10.5 | –
Nc1ccc(C2=NC(C(=O)O)C=C2)cc1 (stereo not drawn) | > 200 | > 200 | –
COc1c(NC(=O)CC(C)=O)[c]([Hg][O]C(C)=O)c(OC)c(Cl)[c]1[Hg][O]C(C)=O | > 0.692 | > 0.692 | –
N#CCCC(C#N)(CCC#N)c1ccccc1 | > 813 | > 813 | –
C=CCC[CH2][Sn]([c]1ccccc1)([c]1ccccc1)[c]1ccccc1 | – | – | inactive
COc1ccc(NC(=O)/C(=C/N2C(=O)/C(=C\C(C)=C\c3ccccc3)SC2=S)C(C)=O)cc1 | > 200 | 13.5 | –
COc1ccc(-c2nc(-c3cnccn3)n(C3OC(CO)C(O)C3O)n2)cc1 (stereo not drawn) | > 200 | > 200 | –
COc1ccc(C(=O)C(CC2C(=O)CC(C)(C)C(C(=O)C(=O)Nc3c(C)cccc3C)C2=O)c2ccc(OC)cc2)cc1 (stereo not drawn) | > 427 | 372 | –
O=C(O)C12C=CC(C1)c1ccccc12 (stereo not drawn) | > 251 | > 251 | –
COc1ccc(I)c(CCC(CO)C2=CCC3(CC2)OCCO3)c1 (stereo not drawn) | > 16.2 | > 16.2 | –
Cc1ccc(C)c(N2C/C(=N\NC(=O)CC#N)C(c3nc4ccccc4s3)C(=O)C2=O)c1 (stereo not drawn) | – | – | inactive
C[C@H]1c2c([nH]c(=O)[nH]c2=O)O[C@@H]1c1ccccc1 | > 200 | > 200 | –
CC[N+](C)(C)C1=C([O-])C(F)(F)C1=O | > 200 | > 200 | –
COc1ccc(C(CC(C)=O)c2c(O)c3ccccc3oc2=O)cc1OC (stereo not drawn) | > 200 | > 200 | –
Cc1ccc(NC(=O)CC(=O)n2nc(-c3ccccc3)c(N=Nc3ccccc3Cl)c2-c2ccccc2)cc1 | > 9.77 | > 9.77 | –
